The values below are quoted from earlier work in patent US9677978B2, “Fixative solution, for fixation and preservation of biological samples” (priority 2011, dated 2017).

For the data set the following is noted: in 20 months; commercial biocide solutions stabilized by antioxidants.

For `N#CC(Br)(Br)C(N)=O` [DBPNA, 2,2-Dibromo-3-nitrilopropionamide], the “degradation of DBPNA” value is given as below 10%.
